Assay results from PMC11249626, “Fluorophore-Labeled Pyrrolones Targeting the Intracellular Allosteric Binding Site of the Chemokine Receptor CCR1” (ACS Pharmacology & Translational Science, 2024).
pIC50, pKi: −log10 of the molar value. Where two headings read alike, the source gives them in different places.

Experiments:
CCR2 = molecular target: T1, CCR2 (Homo sapiens, UniProt P41597); assay: NanoBRET competition binding assay for CCR2 based on 7, as previously reported; settings: for inhibition at 20 µM: compound at 20 μM
T1 construct: host or cells: HEK293T, transient
T1 sequence (P41597 1-360 isoform P41597-2): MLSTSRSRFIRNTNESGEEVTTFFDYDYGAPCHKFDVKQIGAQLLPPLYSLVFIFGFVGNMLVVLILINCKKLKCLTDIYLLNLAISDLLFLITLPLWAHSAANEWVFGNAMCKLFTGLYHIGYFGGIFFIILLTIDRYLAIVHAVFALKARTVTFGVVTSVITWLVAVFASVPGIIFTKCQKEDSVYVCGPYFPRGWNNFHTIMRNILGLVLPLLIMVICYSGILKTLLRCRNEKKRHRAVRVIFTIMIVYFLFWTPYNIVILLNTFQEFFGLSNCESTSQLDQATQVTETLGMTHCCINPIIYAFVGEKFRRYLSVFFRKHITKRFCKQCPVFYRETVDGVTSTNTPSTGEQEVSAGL
Source text: With 6 (Figure 1), a first lead structure for intracellular CCR1 inhibition that features an approximately 20-fold CCR1 over CCR2 selectivity was previously discovered by Ortiz Zacarías et al.([33]) In order to discover new chemotypes for selective CCR1 over CCR2 inhibition, we aimed to apply our novel NanoBRET competition binding assay for CCR1 in combination with our recently published CCR2 competition binding assay based on 7.[47] In our first attempt, we screened a small in-house library enriched with intracellular GPCR ligands and structural analogues thereof. […] Additionally, we tested 23 for binding to the IABS of CCR9 and CXCR2 using our recently reported NanoBRET-based assay platform (Figure 6C).[44],[45] In the course of these studies, we detected no binding of 23 to CCR9 and CXCR2 up to a concentration of 20 μM. Since cell lineage-dependent effects have been observed for CCR1 antagonists,[59] we studied the CCR1 over CCR2 selectivity of 23 by using a previously reported radioligand binding assay with membrane preparations from osteosarcoma (U2OS) cells stably expressing human CCR1 or CCR2.[33] […] In agreement with these previous reports,[33] we observed a reduction in CCR1 over CCR2 selectivity when moving from membrane-based binding assays to cell-based functional assays. […] To investigate a potential signaling bias of 23, we tested the compound by means of a NanoBiT miniGi recruitment assay.[60] […] Thus, this indicated no strong signaling bias of 23 (Figures S9E and S10C). To elucidate the SAR of this new scaffold for selective CCR1 over CCR2 inhibition, we synthesized several analogues of 23 (24–40) and tested them by means of our NanoBRET competition binding assays (Schemes S2 and S3, Table 1, Figures 6F and S11). First, we aimed to examine the impact of the stereochemistry of 23 on CCR1 affinity. As for the structurally related pyrrolone 4, large differences in CCR2 affinity between the eutomer 4-[R] and the distomer 4-[S] were described.[61] […] Furthermore, we identified the 4-hydroxyphenethyl group at position 1 of the pyrrolone scaffold as highly important for CCR1 affinity and selectivity. Its presence seems to block CCR2 binding, also when combined with the structural features of the high-affinity CCR2 ligand 5, as exemplified by 24. Especially the 4-hydroxy group at this moiety is essential for CCR1 binding (see 25 and 26). […] In position 5 of the pyrrolone, several aromatic and aliphatic substituents were tolerated (see 31–35).

[1] = molecular target: T2, human chemokine receptor CCR1 (Homo sapiens, UniProt P32246); assay: Cellular NanoBiT β-arrestin recruitment assay; assay type: cell-based
T2 construct: expressed in transfected cells; host or cells: HEK293T, transient
T2 sequence (P32246 1-355): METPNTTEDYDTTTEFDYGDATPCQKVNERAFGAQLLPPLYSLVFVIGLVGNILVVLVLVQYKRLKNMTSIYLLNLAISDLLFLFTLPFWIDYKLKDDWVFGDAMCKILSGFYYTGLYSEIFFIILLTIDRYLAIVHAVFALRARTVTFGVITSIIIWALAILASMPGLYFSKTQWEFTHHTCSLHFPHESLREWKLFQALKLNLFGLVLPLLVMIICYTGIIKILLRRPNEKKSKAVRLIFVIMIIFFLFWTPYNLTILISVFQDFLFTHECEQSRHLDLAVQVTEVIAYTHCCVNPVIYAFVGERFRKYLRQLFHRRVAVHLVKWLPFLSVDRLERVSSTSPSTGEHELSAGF
Experimental: CCR1 and CCR2 was monitored using a nanoluciferase complementation -based assay (NanoBiT, Promega). 17-19 5 x 10^6 HEK293T cells were plated in 10 cm dishes and cultured for 24 h before transfection with vectors encoding for the human chemokine receptor CCR1 or CCR2 C-terminally fused with SmBiT and β-arrestin 2 N-terminally fused with LgBiT. 24 h after transfection cells were harvested, distributed into white 96-well plates (5 × 10^4 cells per well) and incubated for 1 h at 37 °C with compound 23 at concentrations ranging from 10 nM to 10 µM. The endogenous chemokine ligand CCL5 (3 nM, for CCR1) or CCL2 (10 nM, for CCR2) was then added, and luminescence generated upon nanoluciferase complementation in the presence of coelenterazine H was measured with a Mithras LB940 luminometer (Berthold Technologies) for 20 min. […]
Finally, the top 5% of the identified hits were subsequently docked to a homology model of CCR1 (vide infra). After visual examination of the obtained binding modes 24 hit compounds were identified for further investigation .
Molecular docking: For the docking studies in the course of our virtual screening campaign, the CCR1 protein was […]
27, 28 CCR1 structure was optimized using the Quickprep and structure preparation wizard in MOE 24 using CHARMM27 forcefield. The protein was saved in mol2 format and loaded in GOLD.25, 26 The amino acids defining the IABS were listed in a text file to define the docking cavity. 50 GA runs were performed for docking CCR2-RA-[R] (4-[R]) and SN_12 (43), with the generated solutions clustered based on their RMSD with the threshold set to 0.75 Å using the complete linkage method. Docking runs were performed using ChemScore. Flexibility of amino acids Lys63ICL1, Arg1313.50, Leu2406.36 and Arg3078.49 was taken in consideration in the docking runs, with conformational sampling of their side chains being done by the rotamer libraries implemented in GOLD.25, 26 For the docking studies with our ligand-linker conjugates (Figure S1), molecular ligand structures were geometry optimized as neutral molecules by means of Avogadro (Version 1.2.0)29 using the Universal Force Field (UFF) and the Steepest Decent Algorithm until convergence (ΔE = 0).
CCR113 was used for docking. The compounds were docked by means of AutoDock Vina 1.1.2.30, 31 An exhaustiveness value of 8 and a search space of 22 x 22 x 22 Å³ was applied around the unliganded intracellular allosteric binding site of CCR1. Twenty docking poses were generated for each ligand and inspected manually and according to the docking score.

| inhibition at 20 µM (CCR2; read-out: % inh. of tracer binding, CCR2) [%] | inhibition at 20 µM (CCR2; read-out: CCR2 inhibition class (n.i.)) [%] | pIC50 ([1]; absence of agonist, read-out: IC50 (CCR1), basal β-arrestin recruitment) | IC50 ([1]; absence of agonist, read-out: pIC50(CCR1), basal β-arrestin recruitment (converted)) [µM] | CCR1 over CCR2 selectivity, β-arrestin recruitment ([1]; cellular NanoBiT assays) [fold] | pIC50 ([1]; in the presence of CCL5 (3 nM), HEK293T cells, read-out: IC50 (CCR1), β-arrestin recruitment) | pKi (CCR2; NanoBRET competition, tracer 7) | Compound |
| --- | --- | --- | --- | --- | --- | --- | --- |
| -3 | < 10 | 5.22 | 6.17 | > 10 | 4.85 | – | O=C(C1=C(O)C(=O)N(CCc2ccc(O)cc2)C1c1ccc(F)cc1)c1ccccc1 (racemic) [compound 23] |
| – | – | – | – | – | – | 7.75 | CC(=O)C1=C(O)C(=O)N(c2ccc(Br)cc2F)C1C1CCCCC1 (stereo not shown) [compound 5, reference compound] |
